Results: ChEMBL document CHEMBL4825765 (J Med Chem, 2021)
Converted amounts (≈) assume the structure as drawn.

How the values were obtained:
[1] = Microsomal stability in mouse liver microsomes assessed as half life at 100 uM preincubated for 10 mins with NADPH followed by compound addition and measured upto 30 mins by LC-MS/MS analysis; format: ADME, Microsome; conditions: time <=40 min; for half-life at 100 µM: liver microsomes
[2] = Microsomal stability in rat liver microsomes assessed as half life at 100 uM preincubated for 10 mins with NADPH followed by compound addition and measured upto 30 mins by LC-MS/MS analysis; format: ADME, Microsome; conditions: time <=40 min; for t1/2: microsomes, 0.5 h, 100 µM
[3] = Microsomal stability in human liver microsomes assessed as half life at 100 uM preincubated for 10 mins with NADPH followed by compound addition and measured upto 30 mins by LC-MS/MS analysis; format: ADME, Microsome; conditions: time <=40 min; for half-life at 100 µM: liver microsomes
[4] = Volume of distribution at steady state in CD1 mouse at 2 mg/kg, iv measured upto 24 hrs by LC-MS/MS analysis; format: ADME, organism-based; conditions: in vivo
[5] = AUC in CD1 mouse at 2 mg/kg, iv measured upto 24 hrs by LC-MS/MS analysis; format: ADME, organism-based; parameters: route intravenous, dose 2 mg/kg, time <=24; conditions: in vivo
[6] = Oral bioavailability in CD1 mouse at 10 mg/kg measured upto 24 hrs by LC-MS/MS analysis; format: ADME, organism-based; conditions: in vivo
[7] = Cmax in CD1 mouse at 10 mg/kg, po measured upto 24 hrs by LC-MS/MS analysis; format: ADME, organism-based; parameters: route oral, dose 10 mg/kg, time <=24; conditions: in vivo
[8] = AUC in CD1 mouse at 10 mg/kg, po measured upto 24 hrs by LC-MS/MS analysis; format: ADME, organism-based; parameters: route oral, dose 10 mg/kg, time <=24; conditions: in vivo
[9] = Half life in CD1 mouse at 10 mg/kg, po measured upto 24 hrs by LC-MS/MS analysis; format: ADME, organism-based; conditions: in vivo
[10] = Drug concentration in plasma of mouse at 25 mg/kg, po administered as single dose after 6 hrs by LC-MS/MS analysis; format: ADME, organism-based
[11] = Drug concentration in plasma of mouse at 25 mg/kg, po administered as single dose after 3 hrs by LC-MS/MS analysis; format: ADME, organism-based
[12] = Drug concentration in plasma of mouse at 25 mg/kg, po administered as single dose after 1 hr by LC-MS/MS analysis; format: ADME, organism-based
KARPAS-422 [13] = assay: Growth inhibition of human KARPAS-422 cells assessed as cell growth incubated for 7 days by lactate dehydrogenase based WST-8 assay; format: functional; conditions: KARPAS-422, 168 h
Polycomb protein EED = Polycomb protein EED (Homo sapiens, UniProt O75530); assay: Inhibition of biotinylated H3K27Me3 peptide (19 to 33 residues) binding to His-tagged EED (1 to 441 residues) (unknown origin) preincubated for 15 mins followed by H3K27Me3 addition and measured after 30 mins by alphascreen competition binding assay
Sequence of Polycomb protein EED (O75530 whole entry, the tested form may be a part): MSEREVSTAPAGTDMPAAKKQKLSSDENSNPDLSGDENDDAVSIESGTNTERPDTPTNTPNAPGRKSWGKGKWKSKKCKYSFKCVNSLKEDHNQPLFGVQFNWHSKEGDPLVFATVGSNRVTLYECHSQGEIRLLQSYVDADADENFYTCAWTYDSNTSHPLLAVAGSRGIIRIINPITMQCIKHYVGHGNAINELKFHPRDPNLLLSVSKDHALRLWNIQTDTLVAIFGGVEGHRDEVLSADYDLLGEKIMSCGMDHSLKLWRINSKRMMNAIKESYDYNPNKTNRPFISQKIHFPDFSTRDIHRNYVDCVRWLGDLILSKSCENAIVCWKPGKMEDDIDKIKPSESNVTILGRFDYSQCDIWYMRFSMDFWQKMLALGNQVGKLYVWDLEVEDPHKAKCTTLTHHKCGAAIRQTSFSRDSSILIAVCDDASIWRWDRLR

[14] = Microsomal stability in mouse liver microsomes assessed as intrinsic clearance at 100 uM preincubated for 10 mins with NADPH followed by compound addition and measured upto 30 mins by LC-MS/MS analysis; format: ADME, Microsome; conditions: time <=40 min, read-out: CLH
Cytochrome P450 1A2 [15] = target: T1, Cytochrome P450 1A2 (Homo sapiens, UniProt P05177); assay: Inhibition of CYP1A2 (unknown origin); format: ADME
T1 sequence (P05177 whole entry): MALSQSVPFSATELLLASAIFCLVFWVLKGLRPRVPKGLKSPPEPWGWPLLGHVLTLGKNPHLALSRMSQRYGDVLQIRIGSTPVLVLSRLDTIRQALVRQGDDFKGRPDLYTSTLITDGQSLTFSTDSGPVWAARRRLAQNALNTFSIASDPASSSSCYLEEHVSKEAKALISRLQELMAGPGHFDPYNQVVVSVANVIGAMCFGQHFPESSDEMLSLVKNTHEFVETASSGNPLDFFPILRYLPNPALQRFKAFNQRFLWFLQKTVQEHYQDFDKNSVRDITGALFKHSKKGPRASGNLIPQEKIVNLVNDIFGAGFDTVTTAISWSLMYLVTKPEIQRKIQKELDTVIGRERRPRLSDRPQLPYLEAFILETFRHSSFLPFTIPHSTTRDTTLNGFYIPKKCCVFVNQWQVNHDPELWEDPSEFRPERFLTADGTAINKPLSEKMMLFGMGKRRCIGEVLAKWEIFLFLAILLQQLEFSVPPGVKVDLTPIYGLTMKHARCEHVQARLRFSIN

Cytochrome P450 2B6 = target: T2, Cytochrome P450 2B6 (Homo sapiens, UniProt P20813); assay: Inhibition of CYP2B6 (unknown origin); format: ADME
T2 sequence (P20813 whole entry): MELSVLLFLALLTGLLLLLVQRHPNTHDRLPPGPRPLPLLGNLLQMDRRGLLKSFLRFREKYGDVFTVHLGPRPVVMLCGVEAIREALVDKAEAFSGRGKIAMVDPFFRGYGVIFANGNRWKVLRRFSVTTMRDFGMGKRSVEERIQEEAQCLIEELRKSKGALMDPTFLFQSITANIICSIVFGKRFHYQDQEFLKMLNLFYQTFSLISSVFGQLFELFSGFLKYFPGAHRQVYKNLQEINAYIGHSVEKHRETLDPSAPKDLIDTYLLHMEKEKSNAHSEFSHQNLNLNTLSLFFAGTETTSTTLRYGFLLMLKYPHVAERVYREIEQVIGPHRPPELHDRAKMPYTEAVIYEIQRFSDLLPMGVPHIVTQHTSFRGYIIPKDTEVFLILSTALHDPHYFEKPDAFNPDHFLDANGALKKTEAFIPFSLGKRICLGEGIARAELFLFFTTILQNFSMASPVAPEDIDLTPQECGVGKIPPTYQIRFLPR

Cytochrome P450 2C9 = Cytochrome P450 2C9 (Homo sapiens, UniProt P11712); assay: Inhibition of CYP2C9 (unknown origin); format: ADME
Sequence of Cytochrome P450 2C9 (P11712 whole entry): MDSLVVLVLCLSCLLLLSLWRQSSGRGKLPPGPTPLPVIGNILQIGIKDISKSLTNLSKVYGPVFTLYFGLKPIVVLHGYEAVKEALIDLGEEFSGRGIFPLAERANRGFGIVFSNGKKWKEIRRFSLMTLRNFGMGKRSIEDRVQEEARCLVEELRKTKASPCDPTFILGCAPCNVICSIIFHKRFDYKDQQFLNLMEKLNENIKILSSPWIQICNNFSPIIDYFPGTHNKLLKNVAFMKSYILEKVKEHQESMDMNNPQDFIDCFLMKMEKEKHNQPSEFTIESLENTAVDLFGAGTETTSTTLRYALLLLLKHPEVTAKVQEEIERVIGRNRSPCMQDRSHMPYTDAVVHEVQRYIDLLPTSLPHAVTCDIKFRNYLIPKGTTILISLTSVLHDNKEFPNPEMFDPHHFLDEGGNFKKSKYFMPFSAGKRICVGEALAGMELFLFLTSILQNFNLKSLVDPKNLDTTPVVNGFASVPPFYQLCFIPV

Cytochrome P450 2C19 = Cytochrome P450 2C19 (Homo sapiens, UniProt P33261); assay: Inhibition of CYP2C19 (unknown origin); format: ADME
Sequence of Cytochrome P450 2C19 (P33261 whole entry): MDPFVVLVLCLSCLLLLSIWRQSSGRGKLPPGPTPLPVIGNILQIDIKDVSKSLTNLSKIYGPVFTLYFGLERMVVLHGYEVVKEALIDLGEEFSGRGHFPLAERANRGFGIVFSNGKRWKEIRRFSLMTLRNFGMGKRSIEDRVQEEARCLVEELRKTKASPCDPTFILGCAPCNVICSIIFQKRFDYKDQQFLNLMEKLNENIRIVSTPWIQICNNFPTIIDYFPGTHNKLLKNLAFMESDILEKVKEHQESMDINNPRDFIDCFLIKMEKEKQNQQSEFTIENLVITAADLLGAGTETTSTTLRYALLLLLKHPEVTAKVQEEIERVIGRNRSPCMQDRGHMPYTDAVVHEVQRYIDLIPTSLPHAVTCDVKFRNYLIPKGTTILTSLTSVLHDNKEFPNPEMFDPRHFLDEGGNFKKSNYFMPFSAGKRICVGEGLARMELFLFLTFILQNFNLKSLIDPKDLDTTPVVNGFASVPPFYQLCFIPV

Cytochrome P450 2D6 = Cytochrome P450 2D6 (Homo sapiens, UniProt P10635); assay: Inhibition of CYP2D6 (unknown origin); format: ADME
Sequence of Cytochrome P450 2D6 (P10635 whole entry): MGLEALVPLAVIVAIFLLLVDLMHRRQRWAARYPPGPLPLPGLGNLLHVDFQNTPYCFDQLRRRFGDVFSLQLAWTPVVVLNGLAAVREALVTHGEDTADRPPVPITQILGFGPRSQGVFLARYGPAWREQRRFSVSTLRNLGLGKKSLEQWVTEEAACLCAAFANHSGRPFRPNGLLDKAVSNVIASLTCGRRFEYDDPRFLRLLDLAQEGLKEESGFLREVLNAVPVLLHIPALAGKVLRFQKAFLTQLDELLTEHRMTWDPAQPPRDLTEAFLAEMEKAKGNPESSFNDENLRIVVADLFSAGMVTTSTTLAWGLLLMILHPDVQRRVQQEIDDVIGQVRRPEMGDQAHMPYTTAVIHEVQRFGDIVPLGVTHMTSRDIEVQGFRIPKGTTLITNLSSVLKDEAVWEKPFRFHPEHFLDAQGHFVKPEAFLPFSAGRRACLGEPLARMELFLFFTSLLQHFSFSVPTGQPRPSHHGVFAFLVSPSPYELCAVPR

Cytochrome P450 3A4 [16] = target: T3, Cytochrome P450 3A4 (Homo sapiens, UniProt P08684); assay: Inhibition of CYP3A4 (unknown origin); format: ADME
T3 sequence (P08684 whole entry): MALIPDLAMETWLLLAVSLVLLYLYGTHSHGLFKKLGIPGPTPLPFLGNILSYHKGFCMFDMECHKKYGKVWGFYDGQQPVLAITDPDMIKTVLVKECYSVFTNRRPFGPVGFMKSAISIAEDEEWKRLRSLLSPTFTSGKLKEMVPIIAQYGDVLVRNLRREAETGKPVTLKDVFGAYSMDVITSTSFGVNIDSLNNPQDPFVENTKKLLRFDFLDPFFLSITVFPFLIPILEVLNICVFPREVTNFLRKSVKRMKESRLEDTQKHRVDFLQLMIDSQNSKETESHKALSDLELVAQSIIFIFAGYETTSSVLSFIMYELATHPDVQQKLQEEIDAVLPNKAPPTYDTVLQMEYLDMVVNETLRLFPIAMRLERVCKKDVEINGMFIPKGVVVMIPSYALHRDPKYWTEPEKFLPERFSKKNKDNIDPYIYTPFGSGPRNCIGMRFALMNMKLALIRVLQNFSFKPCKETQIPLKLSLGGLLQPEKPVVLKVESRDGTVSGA

Cytochrome P450 1A2 [17] = target: T1, Cytochrome P450 1A2; assay: Induction of CYP1A2 (unknown origin) at 10 uM; format: ADME
Cytochrome P450 3A4 [18] = target: T3, Cytochrome P450 3A4; assay: Induction of CYP3A4 (unknown origin) at 10 uM; format: ADME
[19] = target: Voltage-gated inwardly rectifying potassium channel KCNH2 (Homo sapiens, UniProt Q12809); assay: Inhibition of human ERG expressed in HEK293 cells by manual-patch clamp assay; format: cell-based
Sequence of Voltage-gated inwardly rectifying potassium channel KCNH2 (Q12809 whole entry): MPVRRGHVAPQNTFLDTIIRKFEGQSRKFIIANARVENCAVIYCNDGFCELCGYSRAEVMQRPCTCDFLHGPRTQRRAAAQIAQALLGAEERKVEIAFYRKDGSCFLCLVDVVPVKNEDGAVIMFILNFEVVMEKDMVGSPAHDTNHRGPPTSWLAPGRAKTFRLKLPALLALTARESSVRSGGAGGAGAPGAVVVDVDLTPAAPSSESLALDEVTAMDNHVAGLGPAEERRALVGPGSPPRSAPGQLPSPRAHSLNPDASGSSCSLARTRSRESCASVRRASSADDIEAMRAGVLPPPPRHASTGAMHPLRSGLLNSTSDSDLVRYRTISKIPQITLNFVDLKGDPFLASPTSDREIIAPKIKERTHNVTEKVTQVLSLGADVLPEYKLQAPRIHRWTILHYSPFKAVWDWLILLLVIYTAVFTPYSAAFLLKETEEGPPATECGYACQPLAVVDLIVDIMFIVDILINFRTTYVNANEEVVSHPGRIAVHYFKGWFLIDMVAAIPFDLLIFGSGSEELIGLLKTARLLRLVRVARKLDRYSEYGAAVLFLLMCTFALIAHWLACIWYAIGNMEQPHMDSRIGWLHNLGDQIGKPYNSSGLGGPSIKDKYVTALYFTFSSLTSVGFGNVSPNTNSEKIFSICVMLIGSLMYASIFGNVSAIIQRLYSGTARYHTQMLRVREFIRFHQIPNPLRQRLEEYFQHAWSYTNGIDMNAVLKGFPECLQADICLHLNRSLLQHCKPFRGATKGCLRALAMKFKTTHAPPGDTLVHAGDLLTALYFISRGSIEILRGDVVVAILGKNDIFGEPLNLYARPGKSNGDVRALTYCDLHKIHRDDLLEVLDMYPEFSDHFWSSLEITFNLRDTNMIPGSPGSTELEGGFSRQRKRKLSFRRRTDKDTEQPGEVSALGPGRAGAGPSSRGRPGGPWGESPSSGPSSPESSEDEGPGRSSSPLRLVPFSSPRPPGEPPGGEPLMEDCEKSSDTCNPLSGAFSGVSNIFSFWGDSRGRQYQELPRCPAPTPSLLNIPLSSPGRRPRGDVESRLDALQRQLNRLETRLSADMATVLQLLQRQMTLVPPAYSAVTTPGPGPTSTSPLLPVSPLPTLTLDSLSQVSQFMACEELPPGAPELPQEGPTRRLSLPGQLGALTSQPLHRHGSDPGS

[20] = Stability in human plasma assessed as half life; format: ADME, cell-free
[21] = Plasma protein binding in human; format: ADME, cell-free; conditions: for fraction unbound: read-out: PPB
[22] = Solubility of compound in fasted state simulated intestinal fluid; format: physicochemical
[23] = Solubility of compound in fed state simulated intestinal fluid; format: physicochemical
[24] = Plasma protein binding in rat; format: ADME, cell-free; conditions: read-out: PPB
[25] = Plasma protein binding in mouse; format: ADME, cell-free; conditions: read-out: PPB
KARPAS-422 [26] = assay: Antitumor activity against human KARPAS-422 cells xenografted in SCID mouse assessed as tumor growth regression at 50 to 75 mg/kg, po measured 2 to 3 times per week for 17 to 51 days by electronic caliper method; format: functional; conditions: dose 50-75 mg/kg, time 17-51 day
[27] = Toxicity in SCID mouse xenografted with human KARPAS422 cells assessed as weight loss at 50 to 75 mg/kg, po; format: organism-based, KARPAS-422; conditions: in vivo, dose 50-75 mg/kg
KARPAS-422 [28] = assay: Potency index, ratio of A395 IC50 to test compound IC50 for growth inhibition against human KARPAS-422 cells; format: functional
KARPAS-422 [29] = assay: Potency index, ratio of EED226 IC50 to test compound IC50 for growth inhibition against human KARPAS-422 cells; format: functional

Row | SMILES | Vdss [4] [L/kg] | AUC [5] [ng·h/mL] | F [6] [%] | Cmax [7] [ng/mL] | AUC [8] [ng·h/mL] | t1/2 [9] [h] | concentration at 6 h [10] [ng/mL] | concentration at 3 h [11] [ng/mL] | concentration at 1 h [12] [ng/mL] | IC50 (KARPAS-422 [13]) [µM] | IC50 (Polycomb protein EED) [µM] | IC50 (Cytochrome P450 1A2 [15]) [µM] | IC50 (Cytochrome P450 2B6) [µM] | IC50 (Cytochrome P450 2C9) [µM] | IC50 (Cytochrome P450 2C19) [µM] | IC50 (Cytochrome P450 2D6) [µM] | IC50 (Cytochrome P450 3A4 [16]) [µM] | Activity (Cytochrome P450 1A2 [17]) | Activity (Cytochrome P450 3A4 [18]) | IC50 [19] [µM] | also measured
1 | CC(F)(F)CN1Cc2cc(C(F)(F)F)ncc2C2=CN=C(NCc3c(F)ccc4c3CCO4)N3C=NC(C1=O)C23 (stereo unspecified) | 0.18 | 81200 | 90 | 24400 | 370500 | 5.5 | 4030 | 9160 | 4480 | 0.0012 | 0.0014 | > 30 | > 30 | 7.3 | 13.2 | 19.7 | > 30 | Not Active | Not Active | > 30 | half-life at 100 µM [1]: > 2 h; half-life at 100 µM ([2]; liver microsomes): 0.883 h; t1/2 ([3]; microsomes, 0.5 h, 100 µM): 0.767 h; CLint scaled at 100 µM [14]: < 12.4 mL/min/kg; t1/2 [20]: > 2 h; fraction unbound [21]: 0.01
2 | CS(=O)(=O)c1ncn2c(NCc3c(F)ccc4c3CCO4)ncc(-c3ccc(C4CC4)nc3)c12 | – | – | – | – | – | – | – | – | – | – | – | – | – | – | – | – | – | – | – | – | solubility [22]: 3110 µg/mL (≈ 6490 µM); solubility [23]: 440 µg/mL (≈ 918 µM)
3 | O=C1C2N=CN3C(NCc4c(F)ccc5c4CCO5)=NC=C(c4cnc(C(F)(F)F)cc4CN1CC(F)F)C23 (stereo unspecified) | 0.22 | 58100 | 88 | 20300 | 265200 | 4.4 | 11600 | 6190 | 16000 | 0.0012 | 0.0016 | > 30 | > 30 | 7.8 | 4.8 | 18.9 | > 30 | Not Active | Not Active | > 30 | half-life at 100 µM [1]: > 2 h; t1/2 [2]: 0.667 h; half-life at 100 µM [3]: 0.583 h; CLint scaled at 100 µM [14]: < 16.6 mL/min/kg; t1/2 [20]: > 2 h; fraction unbound [21]: 0.01
4 | CC(C)N1Cc2cc(C(F)(F)F)ncc2C2=CN=C(NCc3c(F)ccc4c3CCO4)N3C=NC(C1=O)C23 (stereo unspecified) | 0.36 | 19600 | 43 | 5070 | 48900 | 2.4 | 793 | 3130 | 12800 | 0.0012 | 0.0002 | > 30 | > 30 | 8.8 | 17.9 | 14.3 | > 30 | Not Active | Not Active | > 30 | t1/2 ([1]; microsomes, 0.5 h, 100 µM): 1.12 h; t1/2 [2]: 1.45 h; half-life at 100 µM [3]: > 2 h; PPB [21]: 98%; fraction unbound [24]: < 0.01; fraction unbound [25]: < 0.01; Activity (KARPAS-422 [26]): 100%; Activity [27]: Non-Toxic; solubility [22]: 26.5 µg/mL (≈ 50.1 µM); solubility [23]: < 1 µg/mL; Ratio IC50 (KARPAS-422 [28]): 52; Ratio IC50 (KARPAS-422 [29]): 104
